Tests used:
IL-8 cytokine release = assay: Anti-inflammatory activity: IL-8 cytokine release from UV-exposed epidermal equivalents (EPI 200 HCF); format: cell-based, human; settings: summary statement
Method: The topical anti-inflammatory activities of 1-hydroxyl 3,5-bis(4′hydroxyl styryl)benzene and its piperazine salt were evaluated as follows.
Epidermal equivalents (EPI 200 HCF), multilayer and differentiated epidermis consisting of normal human epidermal keratinocytes, were purchased from MatTek (Ashland, Mass.). Upon receipt, epidermal equivalents were incubated for 24 hours at 37° C. in maintenance medium without hydrocortisone. Equivalents were topically treated (2 mg/cm^2) with 1-hydroxyl 3,5-bis(4′hydroxyl styryl)benzene thereof in a 70:30 Ethanol-Propylene glycol vehicle two hours before exposure to solar ultraviolet light (1000W-Oriel solar simulator equipped with a 1-mm Schott WG 320 filter; UV dose applied: 70 kJ/m^2 as measured at 360 nm). The equivalents were incubated for 24 hours at 37° C. with maintenance medium then supernatants were analyzed for IL-8 cytokine release using commercially available kits (Millipore Corp., Billerica, Mass.).

Collagen 1A = assay: Induction of Collagen1A gene expression in primary human dermal fibroblasts (quantitative PCR); format: cell-based; settings: for Collagen 1A Normalized Fold-change in PCR (Mean): 48 hr, normalized to GAPDH, from untreated
Method: (§1) Primary human dermal fibroblasts (Lifeline Cell Technologies, Frederick, Md.) were grown until confluence in DMEM media (Invitrogen/Life Technologies, Carlsbad, 10 CA) with 10% FBS and 1% Penicillin-Streptomycin on 24 well tissue culture plates, followed by treatment with 1-hydroxyl 3,5-bis(4′hydroxyl styryl)benzene (0.1 ug/mL) with and without TNF-a for 48 hr. Post-treatment, cells were lysed using RLT buffer and total RNA was isolated using the RNeasy Mini Kit (Qiagen, Valencia, Calif.). Quantitative PCR was performed using the Gene Amp PCR System 9700 and 7500 Real Time PCR 15 System cycler (Applied Biosystems)/Life Technologies, Carlsbad, Calif.). Elastin (Qiagen) and Collagen1α1 primers (custom sequence-sense: 5′-TCC-CCA-GCT-GTC-TTA-TGG CT-3′ (SEQ ID NO: 1) and anti-sense: 5′-CAG-GCA-CGG-AAA-TTC-CTC-C-3′ (SEQ ID NO: 2)) were used. The housekeeping gene GAPDH was used for normalization (custom primer sequence: F 5′-ATC-TCT-GCC-CCC-TCT-GCT-G-3′ (SEQ ID NO: 3) and R 5′-ATG-GTT-CAC-ACC-CAT-GAC-GA-3′ (SEQ ID NO: 4); Invitrogen/Life Technologies, Carlsbad, Calif.). Fold-changes in PCR (normalized to 5 GAPDH) were calculated from untreated.

Elastin = assay: Induction of Elastin gene expression in primary human dermal fibroblasts (quantitative PCR); format: cell-based; settings: summary statement
Method: as §1

MMP-9 = assay: Inhibition of TNF-α-induced MMP-9 levels in epidermal equivalents (EPI 200 HCF); format: cell-based, human; settings: summary statement
Method: The ability of 1-hydroxyl 3,5-bis(4′hydroxyl styryl)benzene to inhibit TNF-a induced MMP-9 levels was tested at different concentrations as follows. The formation of TNF-α induced MMP-9 is involved in the undesirable breakdown of extracellular matrix in human skin.
Epidermal equivalents (EPI 200 HCF) were purchased from MatTek (Ashland, Mass.). Upon receipt, the epidermal equivalents were incubated for 24 hours at 37° C. in maintenance medium without hydrocortisone. The equivalents were topically treated (2 mg/cm^2) with 1-hydroxyl 3,5-bis(4′hydroxyl styryl)benzene extracts in a 70% ethanol/30% propylene glycol vehicle 2 hours before treatment with TNF-α (100 ng/mL). the equivalents were incubated for 48 hours at 37° C. with maintenance medium then supernatants were analyzed for MMP-9 using commercially available kits (R&D Systems, Minneapolis, Minn.).

SMILES	reduction in UV-induced inflammation in human skin cells (in words) (IL-8 cytokine release)	Collagen 1A Normalized Fold-change in PCR (Mean) (Collagen 1A; 0.1 ug/mL with TNF-α (10 ng/mL))	Collagen 1A Normalized Fold-change in PCR (Mean) (Collagen 1A; 0.1 ug/mL, without TNF-a)	expression of genes associated with collagen production (in words) (Collagen 1A; summary statement)	expression of genes associated with elastin production (in words) (Elastin)	formation of TNF-α induced MMP-9 (in words) (MMP-9)
Oc1ccc(/C=C/c2cc(O)cc(/C=C/c3ccc(O)cc3)c2)cc1 [1-hydroxyl 3,5-bis(4′hydroxylstyryl)benzene]	strong reduction	1.36	2.96	increased	increased	inhibited
Oc1ccc(C=Cc2cc(O)cc(C=Cc3ccc(O)cc3)c2)cc1 [1-hydroxyl 3,5-bis(4′hydroxylstyryl)benzene]	strong reduction					
